From patent US11730836B2, “Synergistic cancer treatment” (priority 2018, dated 2023)

Test system: CAPAN-1 xenografts
Assay: CAPAN-1 xenografts, BRCA 2 deficient (−/−) compared with not deficient (+/+): single dose PLX038A or irinotecan, tumor volume
Type: in vivo, mice
Conditions: irinotecan 137 μg/kg single i.p.; FIGS. 4B vs 4C
Method: Female NCr nude mice (N CrTac:NCr-Foxnt1^nu; ˜6-7 weeks old) from Taconic Bioscience (Cambridge City, Ind.) were housed at the UCSF Preclinical Therapeutics Core vivarium (San Francisco, Calif.). All animal studies were carried out in accordance with UCSF Institutional Animal Care and Use Committee. Tumor xenografts were established by subcutaneous injection with MX-1 tumor cells (2×10^6 cells in 100 μl of serum free medium mixed 1:1 with Matrigel) into the right flank of female NCr nude mice.
Groups (N=4-5/group) were dosed when the group average reached 100-200 mm^3 in size. […] For groups receiving the combination, daily BMN673 dosing began on the same day (FIG. 3A) or after a 4-day delay (FIG. 3B) after dosing PLX038A. Tumor volumes (caliper measurement: 0.5×(length×width^2)) and body weights were measured twice weekly. When vehicle control tumors reached ˜3000 mm^3 in size, mice were treated with the combination of a single dose of PLX038A (15 μmol/kg) and daily BMN673 (0.4 μmol/kg) combination with no delay between dosing (FIG. 3A).
MX-1 cells are BRCA 1 deficient and CAPAN-1 cells are supplied as either BRCA 2 deficient (−/−) or not deficient (+/+).

## CCc1c2c(nc3ccc(OC(=O)N4CCC(N5CCCCC5)CC4)cc13)-c1cc3c(c(=O)n1C2)COC(=O)[C@]3(O)CC [irinotecan]
  effectiveness in BRCA 2 deficient vs non-deficient cells, irinotecan: enhanced
